Reference: PubChem BioAssay AID248 (DTP/NCI, 2004)
“And” between values parts separate entries of the source, which are not always exact repeats. Equal values may be shown once. Toxic doses and inconclusive results are not listed. Cut-off read from the data, not from the text of the source: active = T/C of 150% or more; inactive = T/C below 125%.

Test system: L1210 leukemia ip in BDF1 mice, survival T/C
Test: NCI In Vivo Anticancer Drug Screen. Data for tumor model L1210 Leukemia (intraperitoneal) in B6D2F1 (BDF1) mice
Conditions: endpoint: mean survival time, higher = longer survival
Summary of the method: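 Transplantable tumor model; survival measured in treated vs vehicle control mice. Value = treated/control.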

[1] = dose: 75.0 mg/kg/injection, schedule: Q01DX009 (ip), vehicle: saline
[2] = dose: 150.0 mg/kg/injection, schedule: Q01DX009 (ip), vehicle: saline
[3] = dose: 100.0 mg/kg/injection, schedule: Q01DX001 (ip), vehicle: saline
[4] = dose: 200.0 mg/kg/injection, schedule: Q01DX001 (ip), vehicle: saline
[5] = dose: 400.0 mg/kg/injection, schedule: Q01DX001 (ip), vehicle: saline
[6] = dose: 100.0 mg/kg/injection, schedule: Q04DX003 (ip), vehicle: saline with Tween-80
[7] = dose: 200.0 mg/kg/injection, schedule: Q04DX003 (ip), vehicle: saline with Tween-80
[8] = dose: 400.0 mg/kg/injection, schedule: Q04DX003 (ip), vehicle: saline with Tween-80
[9] = dose: 100.0 mg/kg/injection, schedule: Q01DX001 (ip), vehicle: carboxymethylcellulose (CMC)
[10] = dose: 400.0 mg/kg/injection, schedule: Q01DX001 (ip), vehicle: carboxymethylcellulose (CMC)

Measured: T/C

CCN(CCCCO)CCc1c[nH]c2ccc(OC)cc12
inactive: dose: 4.68 mg/kg/injection, schedule: Q01DX009 (ip), vehicle: saline 98 % of control | dose: 9.37 mg/kg/injection, schedule: Q01DX009 (ip), vehicle: saline 106 % of control | dose: 18.75 mg/kg/injection, schedule: Q01DX009 (ip), vehicle: saline 96 % of control | dose: 18.75 mg/kg/injection, schedule: Q04DX003 (ip), vehicle: saline 112 % of control | dose: 37.5 mg/kg/injection, schedule: Q01DX009 (ip), vehicle: saline 104 % of control | dose: 37.5 mg/kg/injection, schedule: Q04DX003 (ip), vehicle: saline 101 % of control | [1] 95 % of control | dose: 75.0 mg/kg/injection, schedule: Q04DX003 (ip), vehicle: saline 106 % of control | [2] 109 % of control

CCCCCCCCCCCC[N+](C)(C)C(C)Cc1ccccc1 (centres undefined)
inactive: dose: 10.0 mg/kg/injection, schedule: Q01DX001 (ip), vehicle: saline 98 % of control | dose: 20.0 mg/kg/injection, schedule: Q01DX001 (ip), vehicle: saline 98 % of control

CC(C)CCC(C)c1ccncc1 (centres undefined)
inactive: [3] 103 % of control | [4] 97 % of control | [5] 100 % of control

CC(C)C/C=N\N=C(N)N
inactive: dose: 15.0 mg/kg/injection, schedule: Q01DX Z (ip), vehicle: saline 103 % of control | dose: 30.0 mg/kg/injection, schedule: Q01DX Z (ip), vehicle: saline 113 % of control | dose: 60.0 mg/kg/injection, schedule: Q01DX Z (ip), vehicle: saline 104 % of control and 90 % of control | dose: 60.0 mg/kg/injection, schedule: Q01DX Z (sc), vehicle: saline 117 % of control | dose: 120.0 mg/kg/injection, schedule: Q01DX Z (ip), vehicle: saline 103 % of control | dose: 120.0 mg/kg/injection, schedule: Q01DX Z (sc), vehicle: saline 110 % of control

CC(=O)OC1CCC2(C)C(CCC3C2CCC2(C)C3CC(OC(C)=O)C2C(C)C2=NCC(C)CC2)C1 (centres undefined)
inactive: dose: 100.0 mg/kg/injection, schedule: Q04DX003 (ip), vehicle: Klucel (hydroxypropylcellulose) (HPC) 94 % of control | dose: 200.0 mg/kg/injection, schedule: Q04DX003 (ip), vehicle: Klucel (hydroxypropylcellulose) (HPC) 98 % of control | dose: 400.0 mg/kg/injection, schedule: Q04DX003 (ip), vehicle: Klucel (hydroxypropylcellulose) (HPC) 105 % of control

CC(C)(Br)C(=O)c1ccc(Cl)s1
inactive: [6] 96 % of control | [7] 107 % of control | [8] 105 % of control

O=C(c1cccc([N+](=O)[O-])c1)c1cccc([N+](=O)[O-])c1
inactive: dose: 100.0 mg/kg/injection, schedule: Q01DX001 (ip), vehicle: Klucel (hydroxypropylcellulose) (HPC) 117 % of control | dose: 200.0 mg/kg/injection, schedule: Q01DX001 (ip), vehicle: Klucel (hydroxypropylcellulose) (HPC) 97 % of control | dose: 400.0 mg/kg/injection, schedule: Q01DX001 (ip), vehicle: Klucel (hydroxypropylcellulose) (HPC) 94 % of control

O=C(c1ccc(F)cc1)c1ccc([N+](=O)[O-])cc1
inactive: [6] 97 % of control | [7] 97 % of control | [8] 98 % of control

Nc1ccc(C(=O)C(=O)c2ccc(N)cc2)cc1
inactive: dose: 75.0 mg/kg/injection, schedule: Q01DX001 (ip), vehicle: acetone 102 % of control | dose: 150.0 mg/kg/injection, schedule: Q01DX001 (ip), vehicle: acetone 94 % of control

CCCCN(CCCC)CCNc1cc(C)nc(/N=C(\N)Nc2ccc(Cl)c(Cl)c2)n1
inactive: dose: 38.0 mg/kg/injection, schedule: Q01DX009 (ip), vehicle: other 91 % of control | dose: 38.0 mg/kg/injection, schedule: Q04DX003 (ip), vehicle: other 104 % of control | dose: 75.0 mg/kg/injection, schedule: Q01DX001 (ip), vehicle: other 101 % of control | dose: 75.0 mg/kg/injection, schedule: Q01DX009 (ip), vehicle: other 105 % of control | dose: 75.0 mg/kg/injection, schedule: Q04DX003 (ip), vehicle: other 114 % of control | dose: 150.0 mg/kg/injection, schedule: Q01DX001 (ip), vehicle: other 103 % of control | dose: 150.0 mg/kg/injection, schedule: Q04DX003 (ip), vehicle: other 87 % of control | dose: 300.0 mg/kg/injection, schedule: Q01DX001 (ip), vehicle: other 95 % of control

CCCC1(C(=O)OCC)CCCC1=O (centres undefined)
inactive: [9] 95 % of control | dose: 200.0 mg/kg/injection, schedule: Q01DX001 (ip), vehicle: carboxymethylcellulose (CMC) 90 % of control | [10] 92 % of control

NCC(=O)NC(Cc1c[nH]c2ccccc12)C(=O)O (centres undefined)
inactive: dose: 100.0 mg/kg/injection, schedule: Q01DX001 (ip), vehicle: acetone 97 % of control | dose: 200.0 mg/kg/injection, schedule: Q01DX001 (ip), vehicle: acetone 98 % of control | dose: 400.0 mg/kg/injection, schedule: Q01DX001 (ip), vehicle: acetone 92 % of control

Cc1[nH]c2ccccc2c(=O)c1-c1ccccc1
inactive: dose: 50.0 mg/kg/injection, schedule: Q01DX001 (ip), vehicle: saline 98 % of control | [3] 98 % of control | [4] 102 % of control | [5] 96 % of control

CNC(C(=O)O)c1ccccc1 (centres undefined)
inactive: dose: 100.0 mg/kg/injection, schedule: Q01DX001 (ip), vehicle: steriod suspending solution 89 % of control | dose: 200.0 mg/kg/injection, schedule: Q01DX001 (ip), vehicle: steriod suspending solution 97 % of control | dose: 400.0 mg/kg/injection, schedule: Q01DX001 (ip), vehicle: steriod suspending solution 87 % of control

CCCNC(=O)Oc1ccccc1-c1ccccc1
inactive: dose: 100.0 mg/kg/injection, schedule: Q04DX002 (ip), vehicle: saline with Tween-80 92 % of control | dose: 200.0 mg/kg/injection, schedule: Q04DX002 (ip), vehicle: saline with Tween-80 103 % of control | dose: 400.0 mg/kg/injection, schedule: Q04DX002 (ip), vehicle: saline with Tween-80 110 % of control

O=[N+]([O-])c1ccc(C2ON2C2CCCCC2)cc1 (centres undefined)
inactive: [9] 87 % of control | [10] 108 % of control

O=C1CC(=O)NC(=O)N1
inactive: [6] 91 % of control | [7] 93 % of control | [8] 91 % of control

O=C(Nc1ccc([N+](=O)[O-])cc1O)c1ccccc1
inactive: [6] 92 % of control | [7] 92 % of control

CN(C)NP(=O)(c1ccccc1)c1ccccc1
inactive: [3] 98 % of control | [4] 95 % of control | [5] 97 % of control

C1CCC2C(C1)CCC1OC12 (centres undefined)
inactive: dose: 100.0 mg/kg/injection, schedule: Q01DX009 (ip), vehicle: saline 112 % of control | dose: 200.0 mg/kg/injection, schedule: Q01DX009 (ip), vehicle: saline 102 % of control | dose: 400.0 mg/kg/injection, schedule: Q01DX009 (ip), vehicle: saline 107 % of control

O=C(Nc1cccc2ccccc12)OCc1ccccc1
inactive: dose: 100.0 mg/kg/injection, schedule: Q04DX002 (ip), vehicle: Klucel (hydroxypropylcellulose) (HPC) 108 % of control | dose: 200.0 mg/kg/injection, schedule: Q04DX002 (ip), vehicle: Klucel (hydroxypropylcellulose) (HPC) 89 % of control | dose: 400.0 mg/kg/injection, schedule: Q04DX002 (ip), vehicle: Klucel (hydroxypropylcellulose) (HPC) 93 % of control

CN(C)C(N)=O
inactive: [1] 102 % of control | [2] 98 % of control | dose: 300.0 mg/kg/injection, schedule: Q01DX009 (ip), vehicle: saline 100 % of control

COc1ccc(C(=O)Nc2cc(Cl)ccc2OC)cc1
inactive: dose: 100.0 mg/kg/injection, schedule: Q01DX001 (ip), vehicle: other 101 % of control | dose: 100.0 mg/kg/injection, schedule: Q01DX009 (ip), vehicle: other 98 % of control and 102 % of control | dose: 100.0 mg/kg/injection, schedule: Q04DX002 (ip), vehicle: carboxymethylcellulose (CMC) 93 % of control and 103 % of control | dose: 100.0 mg/kg/injection, schedule: Q04DX003 (ip), vehicle: other 97 % of control | dose: 200.0 mg/kg/injection, schedule: Q01DX001 (ip), vehicle: other 93 % of control | dose: 200.0 mg/kg/injection, schedule: Q01DX009 (ip), vehicle: other 100 % of control and 109 % of control | dose: 200.0 mg/kg/injection, schedule: Q04DX002 (ip), vehicle: carboxymethylcellulose (CMC) 96 % of control and 116 % of control | dose: 200.0 mg/kg/injection, schedule: Q04DX003 (ip), vehicle: other 106 % of control | dose: 400.0 mg/kg/injection, schedule: Q01DX001 (ip), vehicle: other 97 % of control | dose: 400.0 mg/kg/injection, schedule: Q01DX009 (ip), vehicle: other 94 % of control and 88 % of control | dose: 400.0 mg/kg/injection, schedule: Q04DX002 (ip), vehicle: carboxymethylcellulose (CMC) 103 % of control and 104 % of control | dose: 400.0 mg/kg/injection, schedule: Q04DX003 (ip), vehicle: other 105 % of control
